Measurements from patent US11013730B1, “Composition comprising selenazol or thiazalone derivatives and silver and method of treatment therewith” (Thioredoxin Systems AB, priority 2014, dated 2021).
In brackets after ≈: the same amount, converted by molar mass. Read-outs that look alike come from different tables or passages of the source.

What was measured:
E. coli TrxR [1] = biological target: T1, E. coli TrxR (Escherichia coli, UniProt P0A9P4); assay: E. coli TrxR inhibition, thioredoxin dependent DTNB reduction assay; assay type: biochemical; settings: for IC50: DTNB assay, 100 nM TrxR, 2 μM Trx, 240 μM NADPH, 1 mM DTNB, read-out: IC50 for E. coli TrxR
T1 sequence (P0A9P4 whole entry): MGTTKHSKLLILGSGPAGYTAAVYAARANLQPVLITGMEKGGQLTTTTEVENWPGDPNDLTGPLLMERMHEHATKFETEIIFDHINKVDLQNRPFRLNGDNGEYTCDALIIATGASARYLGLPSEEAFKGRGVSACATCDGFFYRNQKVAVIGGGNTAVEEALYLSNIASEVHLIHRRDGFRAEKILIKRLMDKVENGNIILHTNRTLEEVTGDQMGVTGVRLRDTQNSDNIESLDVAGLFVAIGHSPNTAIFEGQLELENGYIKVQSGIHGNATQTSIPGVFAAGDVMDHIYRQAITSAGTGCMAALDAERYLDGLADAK
Procedure: Further we examined the effect of ebselen in the reduction of disulfide by E. coli Trx and TrxR using both DTNB and insulin as substrates.
All the benzisoselenazol-3(2H)-one and bisbenzisoselenazol-3(2H)-one derivatives were tested as potential E. coli TrxR inhibitors by standard DTNB assay. […] The reactions were started by adding 1 mM DTNB to the mixture of 100 nM TrxR, 2 μM Trx, 240 μM NADPH, and different concentration of inhibitor (1-40 μM). […] The reactions were started by adding 6 nM TrxR at room temperature. Inhibition constants (Ki) for all the compounds were measured from Dixon plot, which plots 1/v versus […], I=Inhibitor concentration).

Mammalian TrxR [2] = biological target: T2, Mammalian TrxR (Homo sapiens, UniProt Q16881); assay: Kinetic parameters with mammalian TrxR; assay type: biochemical; settings: sulphur analogues
T2 sequence (Q16881 151-649 limits assumed): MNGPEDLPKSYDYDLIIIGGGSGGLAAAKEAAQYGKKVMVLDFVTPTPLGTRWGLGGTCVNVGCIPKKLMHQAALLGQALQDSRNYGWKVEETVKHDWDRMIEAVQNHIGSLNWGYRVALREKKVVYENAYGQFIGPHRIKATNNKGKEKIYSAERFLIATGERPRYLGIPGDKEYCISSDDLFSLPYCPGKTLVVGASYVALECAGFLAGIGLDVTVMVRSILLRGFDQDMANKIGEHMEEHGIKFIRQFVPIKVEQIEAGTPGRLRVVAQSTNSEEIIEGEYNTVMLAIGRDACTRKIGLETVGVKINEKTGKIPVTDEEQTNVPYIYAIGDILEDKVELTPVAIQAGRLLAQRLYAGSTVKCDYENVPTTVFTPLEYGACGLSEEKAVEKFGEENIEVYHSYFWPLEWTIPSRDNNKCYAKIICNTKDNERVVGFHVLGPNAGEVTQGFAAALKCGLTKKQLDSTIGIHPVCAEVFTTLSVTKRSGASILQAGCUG

E. coli TrxR [3] = biological target: T1, E. coli TrxR; assay: Kinetic parameters (substrate) with E. coli TrxR; assay type: biochemical
E. coli = assay type: cell-based, Escherichia coli
Staphylococcus aureus = settings: ref (10); cited from earlier work
H. pylori strains = assay: MIC against H. pylori strains
H. pylori TrxR = H. pylori TrxR (Helicobacter pylori, UniProt P56431); assay: H. pylori TrxR activity, insulin reduction assay; settings: 4, 20, and 40 μM
H. pylori TrxR, sequence (P56431 whole entry): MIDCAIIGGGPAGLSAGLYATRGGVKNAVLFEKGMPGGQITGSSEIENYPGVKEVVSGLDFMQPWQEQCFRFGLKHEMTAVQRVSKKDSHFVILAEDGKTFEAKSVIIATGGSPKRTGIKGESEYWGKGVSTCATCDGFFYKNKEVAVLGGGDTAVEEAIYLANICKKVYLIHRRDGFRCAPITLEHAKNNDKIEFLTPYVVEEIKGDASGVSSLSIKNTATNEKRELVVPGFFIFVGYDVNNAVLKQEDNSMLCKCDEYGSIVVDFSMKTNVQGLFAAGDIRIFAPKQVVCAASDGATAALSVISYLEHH

[4] = Glutathione peroxidase (GPx) activity of the compounds; assay type: biochemical; settings: for Relative GPx activity: EbSe 6 = 1
HEK 293T cells = HEK 293T cells growth (cytotoxicity); assay type: cell-based
recombinant rat TrxR = biological target: T3, recombinant rat TrxR (Rattus norvegicus, UniProt O89049); assay: Inhibition of mammalian (recombinant rat) TrxR
T3 sequence (O89049 1-499): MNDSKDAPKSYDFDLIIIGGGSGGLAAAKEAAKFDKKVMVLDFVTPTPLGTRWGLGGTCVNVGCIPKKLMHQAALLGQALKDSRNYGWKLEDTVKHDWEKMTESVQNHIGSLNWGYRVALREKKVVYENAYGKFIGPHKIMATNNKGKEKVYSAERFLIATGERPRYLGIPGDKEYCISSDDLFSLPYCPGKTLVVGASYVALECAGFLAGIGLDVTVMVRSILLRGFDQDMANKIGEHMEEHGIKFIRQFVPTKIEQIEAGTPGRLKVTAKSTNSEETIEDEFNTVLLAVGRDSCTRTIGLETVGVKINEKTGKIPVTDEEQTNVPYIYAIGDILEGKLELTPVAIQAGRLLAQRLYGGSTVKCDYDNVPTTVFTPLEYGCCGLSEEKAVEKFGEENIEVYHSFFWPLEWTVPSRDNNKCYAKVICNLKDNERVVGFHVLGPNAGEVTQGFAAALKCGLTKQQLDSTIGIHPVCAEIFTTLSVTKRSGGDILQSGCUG

Gor DHB4 E. coli = assay: Inhibition of bacterial growth (MIC), Gor DHB4 E. coli; settings: for MIC: Escherichia coli, DHB4E.COLI, read-out: MIC for Gor DHB4 E. coli
Text: (§1) Here E. coli DHB4 strains wt, gshA^−, gor^−, oxyR^− were used as the model to test the antibiotics activity of these ebselen derivatives.

gshA^− DHB4 E. coli = assay: Inhibition of bacterial growth (MIC), gshA^− DHB4 E. coli; settings: for MIC: Escherichia coli, read-out: MIC for gshA^− DHB4 E. coli; for sensitivity of gshA^− / gor^− strains compared with wild type: E. coli strains wt
Text: as §1

wild type DHB4 E. coli = assay: Inhibition of bacterial growth (MIC), wild type DHB4 E. coli; settings: for MIC: Escherichia coli, DHB4E.COLI, read-out: MIC for wild type DHB4 E. coli
Text: as §1

E. coli TrxR [5] = biological target: T1, E. coli TrxR; assay: E. coli TrxR inhibition, thioredoxin dependent DTNB reduction assay; assay type: biochemical; settings: Lineweaver-Burk plots, reduction of DTNB; read-out: Ki (dissociation constant of inhibitor-TrxR complex), competitive inhibition of E. coli TrxR
Mammalian TrxR [6] = biological target: T2, Mammalian TrxR; settings: from ref (3) / (32); cited from earlier work
E. coli Trx-(SH)2 = E. coli Trx-(SH)2 (Escherichia coli, UniProt P0AA25); settings: fluorescence spectroscopy, ref (32); cited from earlier work
E. coli Trx-(SH)2, sequence (P0AA25 whole entry): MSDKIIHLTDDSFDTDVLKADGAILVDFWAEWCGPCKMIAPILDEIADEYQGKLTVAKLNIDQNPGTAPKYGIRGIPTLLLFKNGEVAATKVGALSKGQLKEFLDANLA

[7] = Dixon plot, 6 nM TrxR, Trx 1, 2 or 4 μM, read-out: Ki for E. coli TrxR
[8] = Homo sapiens, HEK-293T; read-out: IG50 for HEK 293T
[9] = Dixon plot, 6 nM TrxR, Trx 1, 2 or 4 μM

| Structure (SMILES) | IC50 (E. coli TrxR [1]) [µM] | Ki (E. coli TrxR [1]; [7]) [µM] | Relative GPx activity [4] | IC50 (HEK 293T cells; [8]) [µM] | IC50 (recombinant rat TrxR) [µM] | MIC (Gor DHB4 E. coli) [µM] | MIC (gshA^− DHB4 E. coli) [µM] | MIC (wild type DHB4 E. coli) [µM] | other results |
| --- | --- | --- | --- | --- | --- | --- | --- | --- | --- |
| O=c1c2ccccc2sn1-c1ccccc1 [EbS] |  |  |  |  |  |  |  |  | inhibition of E. coli TrxR (in words) (E. coli TrxR [1]): not inhibitors; Km (Mammalian TrxR [2]): 2.5 µM; kcat, mammalian TrxR (Mammalian TrxR [2]): 23.33 s⁻¹; kcat, E. coli TrxR (E. coli TrxR [3]): 11.7 s⁻¹; enhancement of the toxicity of silver toward bacteria (E. coli): less enhancement; antibacterial activity (in words) (Staphylococcus aureus): lost the antibacterial activity; MIC (H. pylori strains; NCTC11637 strain): 1.56 µg/mL (≈ 6.86 µM); MIC (H. pylori strains; strain YS-16): 0.39 µg/mL (≈ 1.72 µM); H. pylori TrxR activity (H. pylori TrxR): inhibited |
| O=C(O)c1ccccc1-n1[se]c2ccccc2c1=O [EbSe 9] | 7.5 | 1.2 | 2.1 | > 160 | 0.8 | 31 (≈ 9.86 µg/mL) | 24 (≈ 7.64 µg/mL) | 49 (≈ 15.6 µg/mL) |  |
| O=c1c2ccccc2[se]n1-c1ccccc1[N+](=O)[O-] [EbSe 12] | 3 | 0.25 | 0.93 |  | > 10 |  |  |  | GPx activity (in words) [4]: no GPx activity; IC50 (HEK 293T cells; Homo sapiens, HEK-293T, read-out: IG50 for HEK 293T): 80 µM; MIC for Gor DHB4 E. coli (Gor DHB4 E. coli): No Inhibition; MIC for gshA^− DHB4 E. coli (gshA^− DHB4 E. coli): No Inhibition; sensitivity of gshA^− / gor^− strains compared with wild type (gshA^− DHB4 E. coli): same sensitivity; MIC for wild type DHB4 E. coli (wild type DHB4 E. coli): No Inhibition |
| O=c1c2cccnc2[se]n1-c1ccc(Cl)cc1 [EbSe19] | 3 | 0.5 |  |  |  |  |  |  |  |
| O=c1c2ccccc2[se]n1-c1ccncc1 [EbSe 13] | 3 | 1.5 | 1.4 | 60 | > 10 | 24 (≈ 6.6 µg/mL) | 21 (≈ 5.78 µg/mL) | 45 (≈ 12.4 µg/mL) |  |
| CC(C)(C)n1[se]c2ccccc2c1=O [EbSe 4] | 15 |  | 1.1 | 75 | > 10 |  |  |  | Ki for E. coli TrxR (E. coli TrxR [1]; [9]): Not detected; inhibition of mammalian TrxR (in words) (recombinant rat TrxR): some activity |
| O=c1c2ccccc2[se]n1CCCn1[se]c2ccccc2c1=O [EbSe 15] | 2.1 |  |  | 9.5 |  |  |  |  | Ki (E. coli TrxR [1]): 0.038 µM |
| Cc1cc(Cl)ccc1-n1[se]c2ccccc2c1=O [EbSe 8] | 6 | 0.25 | 0.67 | 80 | > 10 | 24 (≈ 7.74 µg/mL) | 13 (≈ 4.19 µg/mL) | 47 (≈ 15.2 µg/mL) |  |
| O=C(Nc1ccccc1)c1ccccc1[Se][Se]c1ccccc1C(=O)Nc1ccccc1 [(EbSe)2] |  |  |  |  |  |  |  |  | inhibition of E. coli TrxR (in words) (E. coli TrxR [1]): strongly inhibited; Ki (E. coli TrxR [5]): 0.46 ± 0.05 µM; Km (Mammalian TrxR [6]): 40 µM; kcat, mammalian TrxR (Mammalian TrxR [6]): 1.32 s⁻¹; second-order rate constant of direct reduction by reduced E. coli Trx (E. coli Trx-(SH)2): 1700 M⁻¹ s⁻¹ |
| O=c1[nH][se]c2ccccc12 [EbSe 2] | 15 | 1 | 0.97 | 95 | > 10 |  |  |  | Ki for E. coli TrxR (E. coli TrxR [1]; [9]): Not detected |
| O=c1c2ccccc2[se]n1CCn1[se]c2ccccc2c1=O [EbSe 14] | 2 | 0.05 |  |  |  | 19 (≈ 8.02 µg/mL) | 23 (≈ 9.71 µg/mL) | 23 (≈ 9.71 µg/mL) | sensitivity of gshA^− / gor^− strains compared with wild type (gshA^− DHB4 E. coli): same sensitivity |
